The assay deals with human cervical tumor cell line HeLa (ATCC CCL-2). In words: SAC-Formation - Paclitaxel-Induced Assay. Conditions: 24 h, HeLa cells, paclitaxel 0.05 μM, test range 0.005 μM-20 μM, read-out: IC50 [mol/l] SAC-Formation - Paclitaxel-Induced Assay. The class given is cell-based. The method, boiled down:
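HeLa cells incubated overnight at 37° C, then given paclitaxel (0.05 μM final) plus test compound (0.005–20 μM, 0.5% DMSO) together for 24 h at 37° C. Fixed cells stained for phospho-histone H3 Ser10 (mitotic cells) and Hoechst 33342 (cell count); imaging-derived mitotic index fitted by four-parameter Hill equation.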

Read-outs that look alike come from different tables or passages of the source.

For the compound `Cc1nsc(Nc2cnc(C(F)(F)F)cn2)c1C(=O)Nc1ccc(OCC2CCCN(CC(F)F)C2)nc1` (stereo not shown) [Example 327, N-(6-{[1-(2,2-difluoroethyl)piperidin-3-yl]methoxy}pyridin-3-yl)-3-methyl-5-{[5-(trifluoromethyl)pyrazin-2-yl]amino}-1,2-thiazole-4-carboxamide], for the setting “Homo sapiens, HeLa”, the IC50 worked out at 57 nM.

As for `Cc1nsc(Nc2cnc(C(F)(F)F)cn2)c1C(=O)Nc1ccc(N2CCN(CC(F)(F)F)CC2)nc1` [Example 360, 3-methyl-N-{6-[4-(2,2,2-trifluoroethyl)piperazin-1-yl]pyridin-3-yl}-5-{[5-(trifluoromethyl)pyrazin-2-yl]amino}-1,2-thiazole-4-carboxamide], the IC50 (Homo sapiens, HeLa) stood at 75 nM.

On to `Cc1nsc(Nc2cnc(C(F)(F)F)cn2)c1C(=O)Nc1ccc(OCCN(C)CC(F)(F)F)nc1` [Example 350, 3-methyl-N-(6-{2-[methyl(2,2,2-trifluoroethyl)amino]ethoxy}pyridin-3-yl)-5-{[5-(trifluoromethyl)pyrazin-2-yl]amino}-1,2-thiazole-4-carboxamide], for which, under “Homo sapiens, HeLa”, the IC50 came to 57 nM. Still for that read-out and setting: with `Cc1nsc(Nc2cnc(C(F)(F)F)cn2)c1C(=O)Nc1ccc(CCC2CCN(CC(F)F)CC2)nc1` [Example 356, N-(6-{2-[1-(2,2-difluoroethyl)piperidin-4-yl]ethyl}pyridin-3-yl)-3-methyl-5-{[5-(trifluoromethyl)pyrazin-2-yl]amino}-1,2-thiazole-4-carboxamide] the figure was 250 nM; with `Cc1nsc(Nc2cnc(C(F)(F)F)cn2)c1C(=O)Nc1ccc(OC[C@@H]2CCCN(CC(F)(F)F)C2)nc1` [Example 376, 3-methyl-N-(6-{[(3R)-1-(2,2,2-trifluoroethyl)piperidin-3-yl]methoxy}pyridin-3-yl)-5-{[5-(trifluoromethyl)pyrazin-2-yl]amino}-1,2-thiazole-4-carboxamide], 44 nM.

For the compound `Cc1nsc(Nc2cnc(C(F)(F)F)cn2)c1C(=O)Nc1ccc(OCCN(C)CC(F)F)nc1` [Example 349, N-(6-{2-[(2,2-difluoroethyl)(methyl)amino]ethoxy}pyridin-3-yl)-3-methyl-5-{[5-(trifluoromethyl)pyrazin-2-yl]amino}-1,2-thiazole-4-carboxamide], the IC50 (Homo sapiens, HeLa) turned out to be 50 nM. On the same count and under the same terms, in the case of `Cc1nsc(Nc2cnc(C(F)(F)F)cn2)c1C(=O)Nc1ccc(OCCCN(C)CC(F)F)nc1` [Example 353, N-(6-{3-[(2,2-difluoroethyl)(methyl)amino]propoxy}pyridin-3-yl)-3-methyl-5-{[5-(trifluoromethyl)pyrazin-2-yl]amino}-1,2-thiazole-4-carboxamide] it was 150 nM.

Turning to `Cc1nsc(Nc2cnc(C(F)(F)F)cn2)c1C(=O)Nc1ccc(F)c(OC[C@@H]2CCCN(CCC(F)(F)F)C2)c1` [Example 395, N-(4-fluoro-3-{[(3R)-1-(3,3,3-trifluoropropyl)piperidin-3-yl]methoxy}phenyl)-3-methyl-5-{[5-(trifluoromethyl)pyrazin-2-yl]amino}-1,2-thiazole-4-carboxamide], the IC50 stood at 27 nM. Under “Homo sapiens, HeLa”, the IC50 was 35 nM. With `Cc1nsc(Nc2cnc(C(F)(F)F)cn2)c1C(=O)Nc1ccc(O[C@H]2CCN(CCC(F)(F)F)C2)nc1` [Example 384, 3-methyl-5-{[5-(trifluoromethyl)pyrazin-2-yl]amino}-N-(6-{[(3S)-1-(3,3,3-trifluoropropyl)pyrrolidin-3-yl]oxy}pyridin-3-yl)-1,2-thiazole-4-carboxamide], the IC50 (Homo sapiens, HeLa) was 32 nM. As for `CCN1CCC(COc2ccc(NC(=O)c3c(C)nsc3Nc3cnc(C(F)(F)F)cn3)cn2)C(F)(F)C1` (stereo not shown) [Example 393, N-{6-[(1-ethyl-3,3-difluoropiperidin-4-yl)methoxy]pyridin-3-yl}-3-methyl-5-{[5-(trifluoromethyl)pyrazin-2-yl]amino}-1,2-thiazole-4-carboxamide], the IC50 (Homo sapiens, HeLa) is 440 nM.

Take `Cc1nsc(Nc2cnc(C(F)(F)F)cn2)c1C(=O)Nc1ccc(O[C@@H]2CCN(CC(F)F)C[C@H]2F)nc1` [Example 366, N-(6-{[(3R,4R)-1-(2,2-difluoroethyl)-3-fluoropiperidin-4-yl]oxy}pyridin-3-yl)-3-methyl-5-{[5-(trifluoromethyl)pyrazin-2-yl]amino}-1,2-thiazole-4-carboxamide]: the IC50 (Homo sapiens, HeLa) was 98 nM. `Cc1nsc(Nc2cnc(C(F)(F)F)cn2)c1C(=O)Nc1ccc(OC2CCCN(CCF)C2)nc1` (stereo not shown) [Example 329, N-(6-{[1-(2-fluoroethyl)piperidin-3-yl]oxy}pyridin-3-yl)-3-methyl-5-{[5-(trifluoromethyl)pyrazin-2-yl]amino}-1,2-thiazole-4-carboxamide]: the IC50 (Homo sapiens, HeLa) turned out to be 180 nM.

As to `Cc1nsc(Nc2cnc3ccccc3n2)c1C(=O)Nc1ccc(OC2CCCN(CC(F)F)C2)nc1` (stereo not shown) [Example 33, N-(6-{[1-(2,2-Difluoroethyl)piperidin-3-yl]oxy}pyridin-3-yl)-3-methyl-5-(quinoxalin-2-ylamino)-1,2-thiazole-4-carboxamide], the IC50 (Homo sapiens, HeLa) was 74 nM. Same read-out and setting: in the case of `Cc1nsc(Nc2cnc(C(F)(F)F)cn2)c1C(=O)Nc1ccc(OCCNCCC(F)(F)F)nc1` [Example 323, 3-methyl-5-{[5-(trifluoromethyl)pyrazin-2-yl]amino}-N-(6-{2-[(3,3,3-trifluoropropyl)amino]ethoxy}pyridin-3-yl)-1,2-thiazole-4-carboxamide] it was 800 nM; in that of `Cc1nsc(Nc2ccc(C#N)cn2)c1C(=O)Nc1ccc(OC2CCNCC2)nc1` [Example 28, 5-[(5-Cyanopyridin-2-yl)amino]-3-methyl-N-[6-(piperidin-4-yloxy)pyridin-3-yl]-1,2-thiazole-4-carboxannide], 20000 nM; in that of `Cc1nsc(Nc2cnc(C(F)(F)F)cn2)c1C(=O)Nc1ccc(F)c(OCC2CCCN(CC(F)F)C2)c1` (stereo not shown) [Example 334, N-(3-{[1-(2,2-difluoroethyl)piperidin-3-yl]methoxy}-4-fluorophenyl)-3-methyl-5-{[5-(trifluoromethyl)pyrazin-2-yl]amino}-1,2-thiazole-4-carboxamide], 56 nM. Take `Cc1nsc(Nc2cnc(C(F)(F)F)cn2)c1C(=O)Nc1ccc(OC2CCN(C(CF)CF)CC2)nc1` [Example 324, N-(6-{[1-(1,3-difluoropropan-2-yl)piperidin-4-yl]oxy}pyridin-3-yl)-3-methyl-5-{[5-(trifluoromethyl)pyrazin-2-yl]amino}-1,2-thiazole-4-carboxamide]: for the setting “Homo sapiens, HeLa”, the IC50 was 870 nM. Same read-out and setting: in the case of `Cc1nsc(Nc2cnc(C(F)(F)F)cn2)c1C(=O)Nc1ccc(F)c(OC[C@@H]2CCCN(CC(F)(F)F)C2)c1` [Example 342, N-(4-fluoro-3-{[(3R)-1-(2,2,2-trifluoroethyl)piperidin-3-yl]methoxy}phenyl)-3-methyl-5-{[5-(trifluoromethyl)pyrazin-2-yl]amino}-1,2-thiazole-4-carboxamide] it was 110 nM. With `Cc1nsc(Nc2cnc(C(F)(F)F)cn2)c1C(=O)Nc1ccc(OCCN(C)CCC(F)(F)F)nc1` [Example 351, 3-methyl-N-(6-{2-[methyl(3,3,3-trifluoropropyl)amino]ethoxy}pyridin-3-yl)-5-{[5-(trifluoromethyl)pyrazin-2-yl]amino}-1,2-thiazole-4-carboxamide], the IC50 (Homo sapiens, HeLa) turned out to be 210 nM.

Take `Cc1nsc(Nc2cnc(C(F)(F)F)cn2)c1C(=O)Nc1ccc(O[C@H]2CCN(CC(F)F)C[C@@H]2F)nc1` [Example 362]: the IC50 (Homo sapiens, HeLa) is 59 nM. Regarding `Cc1nsc(Nc2cnc(C(F)(F)F)cn2)c1C(=O)Nc1ccc(F)c(OCC2CCCN(CCC(F)(F)F)C2)c1` (stereo not shown) [Example 338, N-(4-fluoro-3-{[1-(3,3,3-trifluoropropyl)piperidin-3-yl]methoxy}phenyl)-3-methyl-5-{[5-(trifluoromethyl)pyrazin-2-yl]amino}-1,2-thiazole-4-carboxamide], under “Homo sapiens, HeLa”, the IC50 was 79 nM. For the compound `Cc1nsc(Nc2cnc(C(F)(F)F)cn2)c1C(=O)Nc1ccc(C2CCN(CC(F)F)CC2)nc1` [Example 357, N-{6-[1-(2,2-difluoroethyl)piperidin-4 yl]pyridin-3-yl}-3-methyl-5-{[5-(trifluoromethyl)pyrazin-2-yl]amino}-1,2-thiazole-4-carboxamide], the IC50 (Homo sapiens, HeLa) amounted to 99 nM. Still for that read-out and setting: in the case of `Cc1nsc(Nc2cnc(C(F)(F)F)cn2)c1C(=O)Nc1ccc(O[C@@H]2CCN(CC(F)(F)F)C[C@H]2F)nc1` [Example 367, N-(6-{[(3R,4R)-3-fluoro-1-(2,2,2-trifluoroethyl)piperidin-4-yl]oxy}pyridin-3-yl)-3-methyl-5-{[5-(trifluoromethyl)pyrazin-2-yl]amino}-1,2-thiazole-4-carboxamide] it was 37 nM; in that of `Cc1nsc(Nc2cc(C#N)ccn2)c1C(=O)Nc1ccc(OC2CCCN(C(=O)OC(C)(C)C)C2)nc1` (stereo not shown) [Example 34, tert-Butyl 3({5-[({5-[(4-cyanopyridin-2-yl)amino]-3-methyl-1,2-thiazol-4-yl}-carbonyl)amino]pyridin-2-yl}oxy)piperidine-1-carboxylate], 990 nM; in that of `Cc1nsc(Nc2cnc3ccccc3n2)c1C(=O)Nc1ccc(OC2CCCNC2)nc1` (stereo not shown) [Example 32, 3-Methyl-N-[6-(piperidin-3-yloxy)pyridin-3-yl]-5-(quinoxalin-2-ylamino)-1,2-thiazole-4-carboxannide], 11000 nM. Still for that read-out and setting: in the case of `Cc1nsc(Nc2cnc(C(F)(F)F)cn2)c1C(=O)Nc1ccc(OCCN(C)CCF)nc1` [Example 348, N-(6-{2-[(2-fluoroethyl)(methyl)amino]ethoxy}pyridin-3-yl)-3-methyl-5-{[5-(trifluoromethyl)pyrazin-2-yl]amino}-1,2-thiazole-4-carboxamide] it was 520 nM. The same measure, in the same setting: in the case of `Cc1nsc(Nc2cncc(C(F)(F)F)n2)c1C(=O)Nc1ccc(F)c(OC2CCN(CCC(F)(F)F)CC2)c1` [Example 343, N-(4-fluoro-3-{[1-(3,3,3-trifluoropropyl)piperidin-4-yl]oxy}phenyl)-3-methyl-5-{[6-(trifluoromethyl)pyrazin-2-yl]amino}-1,2-thiazole-4-carboxamide] it was 210 nM.

Values taken from patent US20170334899A1, “AMINO-SUBSTITUTED ISOTHIAZOLES” (Bayer Pharma Aktiengesellschaft, priority 2014, published 2017).
